Assay results reported in PMC6309945 (The FEBS journal, 2018).
Non-standard residues stand in square brackets, D forms with d. Residues, ends and D or L forms follow the SMILES beside them. *: point of attachment. Sta = CC(C)C[C@H](N)[C@@H](O)CC(=O)O; Isovaleryl = CC(C)CC(=O)*

How the values were obtained:
plasmepsin II (PMII) = plasmepsin II (PMII) (Plasmodium falciparum, UniProt P46925); assay: Fluorogenic substrate inhibition assay of mature soluble recombinant PMII; type: biochemical
[1] = tested on: human foreskin fibroblasts (HFF); assay: MTT cytotoxicity assay; type: cell-based

Chain of plasmepsin II (PMII) (P46925 125-453): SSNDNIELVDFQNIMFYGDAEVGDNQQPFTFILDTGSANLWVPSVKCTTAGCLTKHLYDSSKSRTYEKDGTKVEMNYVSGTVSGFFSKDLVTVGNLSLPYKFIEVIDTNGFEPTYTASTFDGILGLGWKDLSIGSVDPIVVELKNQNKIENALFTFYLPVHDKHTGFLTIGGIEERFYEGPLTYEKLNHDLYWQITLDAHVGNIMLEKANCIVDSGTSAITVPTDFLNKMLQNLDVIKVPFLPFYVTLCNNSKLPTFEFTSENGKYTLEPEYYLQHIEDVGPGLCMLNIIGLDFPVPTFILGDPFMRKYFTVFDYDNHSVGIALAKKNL

SMILES	Ki (plasmepsin II (PMII))	Cytotoxicity (cell viability, MTT) ([1]; highest concentration tested 25 µM, continuous exposure for 2 consecutive days)	Morphology of cells ([1]; light microscopy, compared to cisplatin-treated cells)
CC(C)CC(=O)N[C@H](C(=O)N[C@H](C(=O)N[C@@H](CC(C)C)[C@@H](O)CC(=O)N[C@@H](C)C(=O)N[C@@H](CC(C)C)[C@@H](O)CC(=O)O)C(C)C)C(C)C [Pepstatin A] (Isovaleryl-VV[Sta]A[Sta]-OH)	0.07 nM		
Cc1cc(N(C)CCN(C)C)cc(C)c1OCC(=O)N[C@@H](Cc1ccccc1)[C@H](O)C(=O)N1CSC(C)(C)[C@H]1C(=O)N[C@H]1c2ccccc2C[C@H]1O [KNI-10743]		no significant cytotoxicity	remains intact
